Measurements as given in patent US6387950B2, “Treatment of tumors with RARα selective retinoid compounds in combination with other anti-tumor agents” (Allergan Sales, Inc., priority 2000, dated 2002).

What was measured:
RARα receptors [1] = target: T1, RARα receptors (Homo sapiens, UniProt P10276); experiment: chimeric receptor transactivation assay, RARα; assay type: cell-based
T1 sequence (P10276 183-417 limits assumed): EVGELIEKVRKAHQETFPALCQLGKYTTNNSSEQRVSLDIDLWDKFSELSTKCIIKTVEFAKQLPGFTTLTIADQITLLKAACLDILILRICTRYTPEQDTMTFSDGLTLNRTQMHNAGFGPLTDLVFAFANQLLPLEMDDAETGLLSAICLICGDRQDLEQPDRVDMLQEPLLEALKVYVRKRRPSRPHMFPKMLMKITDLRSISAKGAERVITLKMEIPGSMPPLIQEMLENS
Excerpt: For example, a chimeric receptor transactivation assay which tests for agonist-like activity in the RARα, RARβ, RARγ, RXRα receptor subtypes, and which is based on work published by Feigner P. L. and Holm M. (1989) Focus, 112 is described in detail in U.S. Pat. No. 5,455,265. The specification of U.S. Pat. No. 5,455,265 is hereby expressly incorporated by reference.
The results obtained in this assay are expressed in EC50 numbers, as they are also in the chimeric receptor transactivation assay.

RARα receptors [2] = target: T2, RARα receptors (Homo sapiens, UniProt P10276); experiment: ligand binding assay; settings: receptor read as RARα from the sentence
T2 construct: made in house; used as extract protein
T2 sequence (P10276 1-462): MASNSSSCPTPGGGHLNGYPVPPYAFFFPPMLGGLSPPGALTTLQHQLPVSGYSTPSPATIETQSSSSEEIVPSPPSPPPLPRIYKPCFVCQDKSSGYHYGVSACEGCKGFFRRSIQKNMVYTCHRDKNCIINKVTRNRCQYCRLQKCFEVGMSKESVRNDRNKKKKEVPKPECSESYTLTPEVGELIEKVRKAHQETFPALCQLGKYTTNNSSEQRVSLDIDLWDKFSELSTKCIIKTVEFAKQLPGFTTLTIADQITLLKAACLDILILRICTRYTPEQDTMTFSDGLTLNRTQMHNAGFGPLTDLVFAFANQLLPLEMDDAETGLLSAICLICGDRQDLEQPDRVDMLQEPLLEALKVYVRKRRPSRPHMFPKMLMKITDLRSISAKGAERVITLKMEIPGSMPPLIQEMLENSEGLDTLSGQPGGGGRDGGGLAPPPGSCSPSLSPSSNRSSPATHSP
Procedure: All binding assays were performed in a similar fashion. All six receptor types were derived from the expressed receptor type (RAR α, β, γ and RXR α, β, γ) expressed in Baculovirus. Stock solutions of all compounds were prepared as 10 mM ethanol solutions and serial dilutions carried out into 1:1 DMSO; ethanol. Assay buffers consisted of the following for all six receptor assays: 8% glycerol. 120 mM KCl. 8 mM Tris. 5 mM CHAPS 4 mM DTT and 0.24 mM PMSF. pH-7.4@room temperature.
All receptor biding assays were performed in the same manner. The final assay volume was 250 μl and contained from 10-40 μg of extract protein depending on receptor being assayed along with 5 nM of [^3H] all-trans retinoic acid or 10 nM [^3H] 9-cis retinoic acid and varying concentrations of competing ligand at concentrations that ranged from 0-10^−5M. The assays were formatted for a 96 well minitube system. Incubations were carried out at 4° C. until equilibrium was achieved. […] The amount of receptor-ligand complex was determined by liquid scintillation counting of hydroxyapitite pellet.
After correcting for non-specific binding, IC50 values were determined. […] The IC50 value was determined graphically from a loglogit plot of the data. The […] were determined by application of the Cheng-Prussof equation to the IC50 values, the labeled ligand concentration and the Kd of the labeled ligand. […]

CC1(C)CCC(C)(C)c2c1cc(C(=O)Nc1cc(F)c(C(=O)O)c(F)c1)c(O)c2Cl [Compound 2, 2,6-Difluoro-4-[(3-hydroxy-4-chloro-5,5,8 8-tetramethyl-5,6,7,8-tetrahydronaphthalene-2-carbonyl) -amino]-benzoic acid]
EC50 (RARα receptors [1]): 180 nM
efficiency (RARα receptors [1]): 75%
Kd (RARα receptors [2]): 5 nM
